Key:
Assay type in all cases: cell-based
[1] = test system: U138; test: Apoptosis assay (Cellomics, nucleus condensation); settings: Table III, read-out: Apoptosis induction in U138
Procedure, shortened: (§1)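 5000 cells/well, Hoechst 33342 live stain; cpd 12.5, 6.25, 3.125, 1.56, 0.78, 0.39 μM or DMSO; imaged 24 h + 48 h; nuclear condensation = intensity variation per nucleus; cell number loss noted.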

[2] = test system: Hs578T; test: Apoptosis assay (Cellomics, nucleus condensation); settings: Homo sapiens, Hs-578T, Table III, read-out: Apoptosis induction in Hs578T
Procedure, shortened: as §1

[3] = test system: SF126; test: Apoptosis assay (Cellomics, nucleus condensation); settings: Homo sapiens, SF-126, Table III, read-out: Apoptosis induction in SF126
Procedure, shortened: as §1

[4] = test system: U118; test: Apoptosis assay (Cellomics, nucleus condensation); settings: Table III, read-out: Apoptosis induction in U118
Procedure, shortened: as §1

[5] = test system: SF763; test: Apoptosis assay (Cellomics, nucleus condensation); settings: Table III, read-out: Apoptosis induction in SF763
Procedure, shortened: as §1

[6] = test system: C8161; test: Apoptosis assay (Cellomics, nucleus condensation); settings: Homo sapiens, Table III, read-out: Apoptosis induction in C8161
Procedure, shortened: as §1

[7] = target: T1, wild type AXL (wtAXL) receptor tyrosine kinase (Homo sapiens, UniProt P30530); test: NIH-3T3-AXL cellular kinase assay (pY-AXL-ELISA); settings: NIH-3T3-AXL (clone 22) cells, serum depleted, compounds 1 h; Table Ia
T1 construct: WtAXL cDNA was cloned into vector pLXSN(ESK) and transfected into Phoenix E packaging cells; expressed in transfected cells; host or cells: NIH3T3 N7 (mouse fibroblasts), retrovirally infected, clone 22
T1 sequence (P30530 26-894): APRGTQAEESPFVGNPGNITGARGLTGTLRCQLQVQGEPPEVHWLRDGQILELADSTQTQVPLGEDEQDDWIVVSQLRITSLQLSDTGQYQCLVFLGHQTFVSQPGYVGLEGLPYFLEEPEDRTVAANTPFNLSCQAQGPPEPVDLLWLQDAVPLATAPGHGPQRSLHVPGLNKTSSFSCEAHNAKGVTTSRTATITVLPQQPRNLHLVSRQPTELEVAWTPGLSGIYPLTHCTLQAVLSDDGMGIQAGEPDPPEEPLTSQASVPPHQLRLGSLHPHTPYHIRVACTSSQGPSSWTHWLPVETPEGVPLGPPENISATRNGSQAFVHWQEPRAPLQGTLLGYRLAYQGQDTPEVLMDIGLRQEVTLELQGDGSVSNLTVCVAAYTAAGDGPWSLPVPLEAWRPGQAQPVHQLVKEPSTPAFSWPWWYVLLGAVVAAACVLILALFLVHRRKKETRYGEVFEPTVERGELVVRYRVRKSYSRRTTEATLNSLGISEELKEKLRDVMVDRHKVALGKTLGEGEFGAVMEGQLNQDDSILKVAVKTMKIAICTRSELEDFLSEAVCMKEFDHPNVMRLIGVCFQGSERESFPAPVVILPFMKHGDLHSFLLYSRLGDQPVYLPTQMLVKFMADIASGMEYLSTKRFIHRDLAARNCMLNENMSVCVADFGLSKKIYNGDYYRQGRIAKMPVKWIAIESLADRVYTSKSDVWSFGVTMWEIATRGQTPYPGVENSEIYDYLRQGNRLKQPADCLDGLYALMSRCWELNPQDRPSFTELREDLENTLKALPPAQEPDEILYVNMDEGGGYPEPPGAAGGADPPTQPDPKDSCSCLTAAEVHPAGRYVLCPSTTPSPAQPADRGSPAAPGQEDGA
Procedure, shortened: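 Phospho-AXL was quantified by ELISA in lysates (4G10-biotin, streptavidin-AP, AttoPhos, 430/560 nm read at 90 min). The cells were monoclonal NIH3T3 lines stably transduced with human wtAXL, exposed to serial compound dilutions for 1 h before lysis.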

Row | Structure (SMILES) | IC50 [1] | IC50 [2] | IC50 [3] | IC50 [4] | IC50 [5] | IC50 [6] | IC50 [7]
1 | COc1cc2c(Oc3ccc(NS(=O)(=O)c4cccc(-c5ccccc5)c4)cc3F)ccnc2cc1OCCCN1CCCCC1 [Example 8, Biphenyl-3-sulfonic acid {3-fluoro-4-[6-methoxy-7-(3-piperidin-1-yl-propoxy)-quinolin-4-loxy]-phenyl}-amide] | 12.5 to 50 µM | ≤ 12.5 µM | ≤ 12.5 µM | ≤ 12.5 µM | ≤ 12.5 µM | ≤ 12.5 µM | < 0.5 µM
2 | COc1cc2c(Oc3ccc(NS(=O)(=O)c4cccc(Oc5ccccc5)c4)cc3F)ccnc2cc1OCCCN1CCCCC1 [Example 10, N-{3-Fluoro-4-[6-methoxy-7-(3-piperidin-1-yl-propoxy)-quinolin-4-yloxy]-phenyl}-3-phenoxy-benzenesulfonamide] | ≤ 12.5 µM | ≤ 12.5 µM | 12.5 to 50 µM | ≤ 12.5 µM | 12.5 to 50 µM | ≤ 12.5 µM | < 0.5 µM
3 | COc1cc2c(Oc3ccc(NS(=O)(=O)c4cc(Cl)cc(Cl)c4OC)cc3F)ccnc2cc1OCCCN1CCCCC1 [Example 34, 3,5-Dichloro-N-{3-fluoro-4-[6-methoxy-7-(3-piperidin-1-yl-propoxy)-quinolin-4-yloxy]-phenyl}-2-methoxy-benzenesulfonamide] | ≤ 12.5 µM | 12.5 to 50 µM | ≤ 12.5 µM | ≤ 12.5 µM | ≤ 12.5 µM | ≤ 12.5 µM | < 0.5 µM
4 | COc1cc2c(Oc3ccc(NS(=O)(=O)c4cc(Cl)cc(Cl)c4OC)cc3F)ccnc2cc1OCCCN1CCN(C)CC1 [Example 35, 3,5-Dichloro-N-(3-fluoro-4-{6-methoxy-7-[3-(4-methyl-piperazin-1-yl)-propoxy]-quinolin-4-yloxy}-phenyl)-2-methoxy-benzenesulfonamide] | 12.5 to 50 µM | ≤ 12.5 µM | ≤ 12.5 µM | ≤ 12.5 µM | ≤ 12.5 µM | ≤ 12.5 µM | < 0.5 µM
5 | COc1cc2c(Oc3ccc(NS(=O)(=O)c4ccccc4Cl)cc3F)ccnc2cc1OCCCN1CCCC(C)C1 (centres unmarked) [Example 38, 2-Chloro-N-(3-fluoro-4-{6-methoxy-7-[3-(3-methyl-piperidin-1-yl)-propoxy]-quinolin-4-yloxy}-phenyl)-benzenesulfonamide] | ≤ 12.5 µM | ≤ 12.5 µM | ≤ 12.5 µM | ≤ 12.5 µM | ≤ 12.5 µM | ≤ 12.5 µM | < 0.5 µM
6 | COc1cc2c(Oc3ccc(NS(=O)(=O)c4ccc(F)cc4F)cc3F)ccnc2cc1OCCCN1CCCC(C)C1 (centres unmarked) [Example 47, 2,4-Difluoro-N-(3-fluoro-4-{6-methoxy-7-[3-(3-methyl-piperidin-1-yl)-propoxy]-quinolin-4-yloxy}-phenyl)-benzenesulfonamide] | ≤ 12.5 µM | ≤ 12.5 µM | 12.5 to 50 µM | ≤ 12.5 µM | ≤ 12.5 µM | 12.5 to 50 µM | < 0.5 µM
7 | COc1cc2c(Oc3ccc(NS(=O)(=O)c4cc(C)ccc4F)cc3F)ccnc2cc1OCCCN1CCCC(C)C1 (centres unmarked) [Example 55] | ≤ 12.5 µM | ≤ 12.5 µM | ≤ 12.5 µM | 12.5 to 50 µM | ≤ 12.5 µM | ≤ 12.5 µM | < 0.5 µM
8 | COc1cc2c(Oc3ccc(NS(=O)(=O)c4ccc(C)c(F)c4)cc3F)ccnc2cc1OCCCN1CCCC(C)C1 (centres unmarked) [Example 56, 3-Fluoro-N-(3-fluoro-4-{6-methoxy-7-[3-(3-methyl-piperidin-1-yl)-propoxy]-quinolin-4-yloxy}-phenyl)-4-methyl-benzenesulfonamide] | ≤ 12.5 µM | ≤ 12.5 µM | ≤ 12.5 µM | ≤ 12.5 µM | ≤ 12.5 µM | ≤ 12.5 µM | < 0.5 µM
9 | COc1cc2c(Oc3ccc(NS(=O)(=O)c4ccc(F)c(Cl)c4)cc3F)ccnc2cc1OCCCN1CCCC(C)C1 (centres unmarked) [Example 57, 3-Chloro-4-fluoro-N-(3-fluoro-4-{6-methoxy-7-[3-(3-methyl-piperidin-1-yl)-propoxy]-quinolin-4-yloxy}-phenyl)-benzenesulfonamide] | ≤ 12.5 µM | ≤ 12.5 µM | ≤ 12.5 µM | ≤ 12.5 µM | 12.5 to 50 µM | ≤ 12.5 µM | < 0.5 µM
10 | COc1cc2c(Oc3ccc(NS(=O)(=O)c4cccc5ccccc45)cc3F)ccnc2cc1OCCCN1CCCC(C)C1 (centres unmarked) [Example 58, Naphthalene-1-sulfonic acid (3-fluoro-4-{6-methoxy-7-[3-(3-methyl-piperidin-1-yl)-propoxy]-quinolin-4-yloxy}-phenyl)-amide] | ≤ 12.5 µM | 12.5 to 50 µM | ≤ 12.5 µM | 12.5 to 50 µM | ≤ 12.5 µM | ≤ 12.5 µM | < 0.5 µM
11 | COc1cc2c(Oc3ccc(NS(=O)(=O)c4cccc(Oc5ccccc5)c4)cc3F)ccnc2cc1OCCCN1CCCC(C)C1 (centres unmarked) [Example 59, N-(3-Fluoro-4-{6-methoxy-7-[3-(3-methyl-piperidin-1-yl)-propoxy]-quinolin-4-yloxy}-phenyl)-3-phenoxy-benzenesulfonamide] | ≤ 12.5 µM | ≤ 12.5 µM | ≤ 12.5 µM | ≤ 12.5 µM | ≤ 12.5 µM | ≤ 12.5 µM | < 0.5 µM
12 | COc1cc2c(Oc3ccc(NS(=O)(=O)c4ccc(Cl)s4)cc3F)ccnc2cc1OCCCN1CCCC(C)C1 (centres unmarked) [Example 63, 5-Chloro-thiophene-2-sulfonic acid (3-fluoro-4-{6-methoxy-7-[3-(3-methyl-piperidin-1-yl)-propoxy]-quinolin-4-yloxy}-phenyl)-amide] | ≤ 12.5 µM | ≤ 12.5 µM | ≤ 12.5 µM | ≤ 12.5 µM | ≤ 12.5 µM | ≤ 12.5 µM | < 0.5 µM
13 | COc1cc2c(Oc3ccc(NS(=O)(=O)c4c(F)cccc4F)cc3F)ccnc2cc1OCCCN1CCOCC1 [Example 77, 2,6-Difluoro-N-{3-fluoro-4-[6-methoxy-7-(3-morpholin-4-yl-propoxy)-quinolin-4-yloxy]-phenyl}-benzenesulfonamide] | ≤ 12.5 µM | ≤ 12.5 µM | ≤ 12.5 µM | ≤ 12.5 µM | ≤ 12.5 µM | ≤ 12.5 µM | < 0.5 µM
14 | COc1cc2c(Oc3ccc(NS(=O)(=O)c4ccccc4F)cc3F)ccnc2cc1OCCN1CCOCC1 [Example 81, 2-Fluoro-N-{3-fluoro-4-[6-methoxy-7-(2-morpholin-4-yl-ethoxy)-quinolin-4-yloxy]-phenyl}-benzenesulfonamide] | ≤ 12.5 µM | ≤ 12.5 µM | ≤ 12.5 µM | ≤ 12.5 µM | ≤ 12.5 µM | ≤ 12.5 µM | < 0.5 µM
15 | COc1cc2c(Oc3ccc(NS(=O)(=O)c4ccccc4C(F)(F)F)cc3F)ccnc2cc1OCCCN(C)C [Example 100, N-{4-[7-(3-Dimethylamino-propoxy)-6-methoxy-quinolin-4-yloxy]-3-fluoro-phenyl}-2-trifluoromethyl-benzenesulfonamide] | ≤ 12.5 µM | ≤ 12.5 µM | ≤ 12.5 µM | 12.5 to 50 µM | ≤ 12.5 µM | ≤ 12.5 µM | –
16 | COc1cc2c(Oc3cccc(NS(=O)(=O)c4ccccc4C(F)(F)F)c3)ccnc2cc1OCCCN1CCN(C)CC1 [Example 102, N-(3-{6-Methoxy-7-[3-(4-methyl-piperazin-1-yl)-propoxy]-quinolin-4-yloxy}-phenyl)-2-trifluoromethyl-benzenesulfonamide] | ≤ 12.5 µM | ≤ 12.5 µM | ≤ 12.5 µM | ≤ 12.5 µM | ≤ 12.5 µM | ≤ 12.5 µM | –

— patent US9169241B2, “Quinolinyloxyphenylsulfonamides” (Max-Planck-Gesellschaft Zur Forderung der Wissenschaften …, priority 2009, dated 2015)
